Values belong to the compound of their own block, whether it stands above or below them.
Experiments:
[1] = test system: Kluyveromyces marxianus B099; assay: Microdilution test, susceptibility of Kluyveromyces marxianus to the antibiotic (growth abatement, OD600); format: cell-based
Protocol: (§1) The test aims to assess the in vitro susceptibility of the yeast Kluyveromyces marxianus to the antibiotic rifaximin. The test is performed by assaying 8 scalar dilutions of rifaximin in liquid culture medium (microdilution). Bacterial strains are tested in parallel as controls. Rifaximin is a synthetic molecule derived from rifamycin. The powder is characterized by poor solubility in water and tendency to self-aggregate in the liquid phase. A preliminary step is then performed to set the solubility conditions of rifaximin at the highest concentration used in the test (0.5 mg/ml). The following strains were used • Kluyveromyces marxianus B099 • Bifidobacterium longum […] • Escherichia coli ATCC 8739 The Escherichia coli bacterial strain was revitalized from a reference stock suspension stored at -80° C. After thawing, working cultures were set up by growing the strain in suitable plate medium under the optimal growth conditions. The other strains were obtained after plating on agarized culture medium of the specific matrices and subsequent isolation of pure colonies. In Table 1 the strains and the growth and inoculation conditions are set forth. [table] In the microdilution test, broth-cultures of the test microorganisms are set up in triplicates in the presence of 8 different concentrations of rifaximin, which are selected in agreement with the client, and 1 concentration of rifamycin corresponding to the highest concentration selected for rifaximin. 100 μl of a solution, 2 times more concentrated (2×) than the desired concentration, and 100 μl of the microbial suspension at a titer given in Table 2.2.1, were added to each well of the 96-wells plates. The 8 concentrations of rifaximin are produced from the 50 mg/ml solution in DMSO in TSB and in parallel in SDB. The final test concentrations are as follows: 0.5 mg/ml-0.25 mg/ml-0.125 mg/ml-0.063 mg/ml-0.031 mg/ml-0.015 mg/ml-0.0078 mg/ml-0.0039 mg/ml. Following the absorbance measurement on the spectrophotometer, the mean of the data recorded for each concentration and the mean of the data from the controls in DMSO or sterile water are calculated. To estimate the microbial growth and determine MIC from the mean data obtained (in the test and controls), the blank data are subtracted and then the control data and the test data are compared with each other to assess any growth or growth inhibition of each strain tested. The growth inhibition is calculated as a percentage by the following formula: [formula] • wherein • A: Mean OD of control • B: Mean OD of the sample at the concentration tested • MIC is considered the lowest concentration of product that can give at least 90% growth inhibition. A solution of rifamycin is prepared, at the 50 mg/ml concentration in sterile water, which is then diluted in tryptic soy broth (TSB) and in parallel in Sabouraud dextrose broth (SDB) until the 0.5 mg/ml concentration used in the test is obtained. The plates are incubated at the optimal temperatures and growth conditions of the various strains tested as described in Example 5. After the days of incubation have passed, the absorbance at 600 nm (OD600) is measured by spectrophotometer. The mean values after subtracting the blank are used to estimate microbial growth and determine MIC.

[2] = test system: Escherichia coli ATCC 8739; assay: Microdilution test, control bacterial strain Escherichia coli (growth abatement, OD600); format: cell-based
Protocol: as §1

[3] = test system: Bifidobacterium longum W11; assay: Microdilution test, control bacterial strain Bifidobacterium longum (growth abatement, OD600); format: cell-based; settings: for Abatement of strain growth: Bifidobacterium longum W11
Protocol: as §1

[4] = Preliminary solubilization test in DMSO; format: physicochemical; settings: starting stock solution
Protocol: The test aims to assess the in vitro susceptibility of the yeast Kluyveromyces marxianus to the antibiotic rifaximin. The test is performed by assaying 8 scalar dilutions of rifaximin in liquid culture medium (microdilution). Bacterial strains are tested in parallel as controls. Rifaximin is a synthetic molecule derived from rifamycin. The powder is characterized by poor solubility in water and tendency to self-aggregate in the liquid phase. A preliminary step is then performed to set the solubility conditions of rifaximin at the highest concentration used in the test (0.5 mg/ml). The exploratory step is performed to set the solubilization conditions of rifaximin and the culture conditions of the microbial strains. Given the poor solubility of rifaximin powder in water and the tendency for self-aggregation in the liquid phase, a solubilization test in DMSO (dimethyl sulfoxide) is performed. […] The first concentration used in the test and the subsequent dilutions (set up in Tryptic soy broth-TSB or Sabouraud dextrose broth-SDB, base-2 serial dilutions) were defined in agreement with the client, based on literature data. The strains were expanded first in liquid medium and then in agarized medium, as described in Table 2.2.1, obtaining growth results that confirmed the use of these media and conditions for the microdilution test as well.

[5] = rifamycin 0.5 mg/ml (stock in sterile water)

Highest concentration in DMSO with no visible precipitates and clear [4]: 50 mg/mL
SMILES: CO[C@H]1/C=C/O[C@@]2(C)Oc3c(C)c(O)c4c(O)c(c5c(nc6cc(C)ccn65)c4c3C2=O)NC(=O)/C(C)=C\C=C\[C@H](C)[C@H](O)[C@@H](C)[C@@H](O)[C@@H](C)[C@H](OC(C)=O)[C@@H]1C [rifaximin]
Growth inhibition, conclusion in words [1]: does not inhibit the growth
Abatement of strain growth ([1]; rifaximin 0.0039 mg/ml): 1.5%
Abatement of strain growth ([1]; rifaximin 0.0078 mg/ml): −1.7%
Abatement of strain growth ([1]; rifaximin 0.015 mg/ml): −3.3%
Abatement of strain growth ([1]; rifaximin 0.031 mg/ml): −2.1%
Abatement of strain growth ([1]; rifaximin 0.063 mg/ml): −2.6%
Abatement of strain growth ([1]; rifaximin 0.125 mg/ml): −3.5%
Abatement of strain growth ([1]; rifaximin 0.25 mg/ml): −1.2%
Abatement of strain growth ([1]; rifaximin 0.5 mg/ml): −4.7%
Growth inhibition, conclusion in words [2]: inhibits the growth
Growth inhibition ([2]; at ≥0.031 mg/ml concentrations): ~99%
Abatement of strain growth ([2]; rifaximin 0.0039 mg/ml): 45.7%
Abatement of strain growth ([2]; rifaximin 0.0078 mg/ml): 54.9%
Abatement of strain growth ([2]; rifaximin 0.015 mg/ml): 94.5%
Abatement of strain growth ([2]; rifaximin 0.031 mg/ml): >99.9%
Abatement of strain growth ([2]; rifaximin 0.063 mg/ml): 99.6%
Abatement of strain growth ([2]; rifaximin 0.125 mg/ml): >99.9%
Abatement of strain growth ([2]; rifaximin 0.25 mg/ml): 98.5%
Abatement of strain growth ([2]; rifaximin 0.5 mg/ml): 98.1%
Growth inhibition, conclusion in words ([3]; Bifidobacterium longum): inhibits the growth
Growth inhibition ([3]; Bifidobacterium longum, virtually all concentrations except 0.0039 mg/ml): > 99.9%
Abatement of strain growth ([3]; rifaximin 0.0039 mg/ml): 45.5%
Abatement of strain growth ([3]; rifaximin 0.0078 mg/ml): >99.9%
Abatement of strain growth ([3]; rifaximin 0.015 mg/ml): >99.9%
Abatement of strain growth ([3]; rifaximin 0.031 mg/ml): >99.9%
Abatement of strain growth ([3]; rifaximin 0.063 mg/ml): >99.9%
Abatement of strain growth ([3]; rifaximin 0.125 mg/ml): >99.9%
Abatement of strain growth ([3]; rifaximin 0.25 mg/ml): 98.7%
Abatement of strain growth ([3]; rifaximin 0.5 mg/ml): >99.9%

SMILES: CO[C@H]1/C=C/O[C@@]2(C)Oc3c(C)c(O)c4c(O)c(cc(O)c4c3C2=O)NC(=O)/C(C)=C\C=C\[C@H](C)[C@H](O)[C@@H](C)[C@@H](O)[C@@H](C)[C@H](OC(C)=O)[C@@H]1C [rifamycin]
Growth inhibition, conclusion in words [1]: inhibits the growth
Abatement of strain growth [1, 5]: 88.9%
Growth inhibition, conclusion in words [2]: inhibits the growth
Abatement of strain growth [2, 5]: 79.7%
Growth inhibition, conclusion in words ([3]; Bifidobacterium longum): inhibits the growth
Abatement of strain growth [3, 5]: 87.5%

— patent US20260183356A1, “NOVEL COMBINATION BASED ON RIFAXIMIN AND PROBIOTIC YEASTS, COMPOSITIONS CONTAINING IT AND THEIR USE IN THERAPY” (NYUMA PHARMA SRL, priority 2022, published 2026)
